Measurements published in patent US20060063143A1, “Immortalized hypothalamic neuronal cell lines” (priority 2002, published 2006).

Tested on: immortalized hypothalamic subclones N-7, N-22, N-29
Experiment: Functional cAMP response of immortalized subclones to peptide stimulation (RIA)
Type: cell-based, mouse
Conditions: cell lines N-7, N-22 and N-29; 10^-7 M (100 nM) peptide, 15 minutes, IBMX 100 μM
From the text: The onset of mood disorders, such as depression or anxiety, involve the altered function of multiple loci in the brain that regulate emotionality, memory and motivation (41-43). However, the inability to describe a cellular and molecular aetiology of these conditions likely reflects, in part, the existence of critical neurological circuits not yet understood. A novel family of neuropeptides on the carboxy-terminus of the teneurin transmembrane proteins (32, 44) is implicated in neuronal communication. In one embodiment, they modulate stress responses and anxiety (data not shown) and likely play a role in some psychiatric illnesses. In another embodiment, they are implicated as modulators of cell cycle and cell proliferation. These sequences are called teneurin C-terminal-associated peptides (TCAP-1 to 4) [SEQ. ID NOs 1-9]. These peptides may also have a cleavable amidation signal at the C-terminus, such as “GRR” or “GKR”. […]
The functional cAMP response of the immortalized subclones to TCAP peptide stimulation was also assessed and the results are shown in FIG. 18. […] N-7, N-22 and N-29 were analyzed for the cAMP response to peptide stimulation. […] Cells were scraped from the plate and kept at −20° C. until the amounts of intracellular cAMP were determined in triplicate by RIA (Biotechnologies Inc., Stoughton, Mass.) according to the manufacturer's instructions.

Substance: rtTCAP-3: teneurin C-terminal-associated peptide, rainbow trout TCAP-3, SEQ ID NO 9 plus amidation signal GKR; stress-regulating peptide provided by Dr. D. Lovejoy (QLLSGRKVLGYDGYYVLSIEQYPELADSANNIQFLRQSEI; C-terminal GKR amidation signal; Trout TCAP3)
- TCAP responsiveness of cell lines (cAMP response): responsive
